For test [1], the target named is T1, hGR (human glutathione reductase) (Homo sapiens, UniProt P00390).
T1 construct: purchased Sigma-Aldrich
T1 sequence (P00390 44-522): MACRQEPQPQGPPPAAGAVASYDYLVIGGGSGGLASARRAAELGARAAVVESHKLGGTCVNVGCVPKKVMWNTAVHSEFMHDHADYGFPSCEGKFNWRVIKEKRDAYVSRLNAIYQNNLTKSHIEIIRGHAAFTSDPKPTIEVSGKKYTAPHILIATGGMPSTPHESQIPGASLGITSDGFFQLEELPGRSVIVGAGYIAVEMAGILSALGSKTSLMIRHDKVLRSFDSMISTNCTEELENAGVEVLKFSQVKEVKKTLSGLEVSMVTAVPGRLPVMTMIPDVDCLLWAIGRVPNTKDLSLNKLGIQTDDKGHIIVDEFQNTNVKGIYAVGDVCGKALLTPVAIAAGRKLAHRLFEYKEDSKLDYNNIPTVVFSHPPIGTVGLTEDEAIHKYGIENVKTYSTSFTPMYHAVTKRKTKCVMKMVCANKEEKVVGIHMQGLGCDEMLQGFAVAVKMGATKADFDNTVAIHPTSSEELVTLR
Kind of test: hGR enzymatic inhibition assay (NADPH oxidation at 340 nm). The format is biochemical. Particulars: for IC50: 50 nM hGR, 100 μM NADPH, 25 °C; for SI (ratio of GR IC50/TR IC50): hGR versus LiTR. On the procedure: Enzymatic inhibition assays were performed in 50 mM HEPES pH 7.4, 40 mM NaCl at 25 °C using a JASCO V650 spectrophotometer equipped with a JASCO EHC 716 Peltier element to ensure controlled temperature. The first experiment was carried out using 50 nM LiTR, 10 or 100 μM compound to be tested, 150 μM trypanothione (trypanothione disulfide purchased from Bachem), and 100 μM NADPH (tetrasodium salt, purchased from Calbiochem). The best inhibitor candidates were then tested at concentrations ranging from 1 nM to 250 μM to determine the IC50. Assays were initiated upon addition of 100 μM NADPH to 50 nM LiTR or hGR (human glutathione reductase purchased from Sigma-Aldrich) in the presence of different concentration of compounds and 150 μM trypanothione. For both experiments, the oxidation of NADPH was followed as a decrease in absorbance at 340 nm. For each concentration of compound, the initial velocity of the NADPH oxidation was used to determine the percentage of LiTR activity with respect to that in the absence of any compound. The IC50 was determined upon fitting the residual activity of TR as a dose–response logistic equation defined as ymin + (ymax – ymin)/(1 + (x/IC50)^slope). […] The Ki was determined graphically upon linear fitting of data points for each trypanothione concentration. Data analysis was performed with QtiPlot 0.9.8.9 svn 2288, and graphs were made with Matplotlib.
Figure S3. Inhibition assay of LiTR (red) and hGR (grey) with compounds 5-6, 9-10 and 14.
Enzymatic assays were carried out at 25°C on a JASCO V650 spectrophotometer equipped with a JASCO EHC716 Peltier unit. Compound concentrations used during the experiments range from 1 […]
higher than 30 µM and 20 µM, respectively. Briefly, 50 nM LiTR or hGR (Sigma Aldrich) were mixed in 50 mM HEPES pH 7.4, 40 mM NaCl with each compound and 150 µM trypanothione or glutathione. After 3-minute incubation at 25°C, the measurement was initiated upon addition of 100 µM NADPH. The oxidation of NADPH was followed as a decrease in absorbance at 340 nm. Each initial velocity of LiTR enzymatic reaction with the compounds was expressed as a percentage of residual activity with respect to that in the absence of compound. Each data point is the mean of two measurements. The IC50 was determined upon fitting the data as a dose response logistic equation defined by the Kaleidagraph software as ymin+(ymax-ymin)/(1+(x/IC50)^slope).
(1 picture or pasted object on this page, not shown here)

Test [2] deals with L. infantum axenic amastigotes. The test can be described thus: In vitro inhibition of axenic amastigote growth (MTT). It counts as cell-based, Leishmania infantum. The settings on record: 72 h, read-out: axenic amastigote EC50 ± SE (95% CI). The procedure:
Axenic amastigote growth inhibition was evaluated using L. infantum strain (MHOM/TN/80/IPT1, WHO international reference strain). Axenic amastigote cultures were obtained as described previously with modifications.[45] Promastigotes were grown in Schneider’s Drosophila medium (SIGMA) containing 10% heat-inactivated fetal calf serum (FCS)(GIBCO-BRL) and 2% gentamicin (50 mg/L)(Sigma) in 25 cm^2 flasks at 22 °C. After 4–5 days, the parasites were adjusted to 1 × 10^6 parasites/mL in axenic medium MAA/20 consisting of modified medium 199 (Gibco BRL) with Hanks’ salts supplemented with 0.5% tryptic soy broth (Sigma), 0.01 mM bathocuproine disulfonic acid, 3 mM L-cysteine, 15 mM D-glucose, 5 mM L-glutamine, 4 mM NaHCO3, 0.023 mM bovine hemin, and 25 mM HEPES to a final pH of 6.5 and supplemented with 20% pretested FCS, and axenic amastigotes were obtained by shifting the incubation conditions: 198 μL of suspension was seeded in triplicate in 96-well flat bottom microplates and incubated at 37 °C, 5% CO2 for 48 h in order to allow the axenization. The amastigote cells were visualized under the light microscope to confirm transformation. Then, 2 μL of the selected compounds with varying concentrations were added: 100, 50, 25, 12.5, 6.25, 3.12, 1.56, 0.8, 0.4, 0.2, 0.1, 0.05 μM. […] Each experiment was conducted in triplicate for each drug concentration, and three independent experiments were performed. To estimate the 50% inhibitory concentration (IC50), the (3-[4.5-dimethylthiazol-2-yl]-2.5-diphenyltetrazolium bromide) (MTT) micromethod was used throughout the experiments with modification. After 72 h of incubation, 30 μL of MTT was added to each well, and the plates were further incubated for 3 h. The absorbance at 550 nm was measured with a 96-well scanner. Antileishmanial activity was expressed as the percentage of inhibition in the number of live parasites compared to that in the control (nontreated parasites). % inhibition was calculated as follows: % growth inhibition = [(absorb cell with drug × 100)/absorb cell control] – 100. Results were analyzed by GraphPad Prism 5.0, dose–response curves were obtained and IC50 deduced (GraphPad Software Inc., San Diego, USA).

Where two headings read alike, the source gives them in different places.

In the case of `C[N+]1(CCCc2ccccc2)CCN(C(=O)N(Cc2ccc(C(=O)NCCc3ccc(F)cc3)o2)c2ccc(F)cc2)CC1.[I-]` [Compound 9, 4-(((5-((4-Fluorophenethyl)carbamoyl)furan-2-yl)methyl)(4-fluorophenyl)carbamoyl)-1-methyl-1-(3-phenylpropyl)piperazin-1-ium Iodide], in test [1], the half-maximal inhibitory concentration (IC50) (usually the point on the concentration scale where inhibition reaches its midpoint) turned out to be 62.4 ± 12.4 µM and the “SI (ratio of GR IC50/TR IC50)” value was determined as 3.0. For the same compound, the half-maximal effective concentration (EC50) (usually the concentration needed to bring the measured effect to its halfway point) in test [2] came to 10.4 ± 1.1 µM. For the same compound, in test [2] (Leishmania infantum), the 50% effective concentration (EC50) came out at 10.4 µM.

Consider `O=C(NCCc1ccc(F)cc1)c1ccc(CN(C(=O)N2CC[N+](CCCc3ccccc3)(Cc3ccc(Cl)c(Cl)c3)CC2)c2ccc(F)cc2)o1.[I-]` [Compound 10, 1-(3,4-Dichlorobenzyl)-4-(((5-((4-fluorophenethyl)carbamoyl)furan-2-yl)methyl)(4-fluorophenyl)carbamoyl)-1-(3-phenylpropyl)piperazin-1-ium Iodide], for which, in test [1], half-maximal inhibition (IC50) required 2.3 ± 0.1 µM and the “SI (ratio of GR IC50/TR IC50)” value was 1.7. For the same compound, in test [2] (Leishmania infantum), the concentration giving a half-maximal response (EC50) was determined as 11 ± 1.9 µM.

In the case of `O=C(NCCc1ccc(F)cc1)c1ccc(CNC(=O)N2CC[N+](CCCc3ccccc3)(Cc3ccc(Cl)c(Cl)c3)CC2)o1.[I-]` [Compound 14, 1-(3,4-Dichlorobenzyl)-4-(((5-((4-fluorophenethyl)carbamoyl)furan-2-yl)methyl)carbamoyl)-1-(3-phenylpropyl)piperazin-1-ium Iodide], in test [1], the IC50 amounted to 3.7 ± 0.3 µM and the “SI (ratio of GR IC50/TR IC50)” value amounted to 1.6. In test [2] (Leishmania infantum), the concentration for a half-maximal effect (EC50) turned out to be 8.98 ± 0.4 µM.
